Legend:
GPR55 [1] = target: T1, GPR55 (Homo sapiens, UniProt Q9Y2T6); experiment: inhibition of uptake of the fluorescent GPR55 agonist T1117 in hGPR55-HEK293 cells; positive control; assay type: cell-based
T1 construct: 3 × HA-tagged human GPR55 stably expressed in HEK293 cells

GPR55 [2] = target: T1, GPR55; experiment: inhibition of uptake of the fluorescent GPR55 agonist T1117 in hGPR55-HEK293 cells (live-cell imaging); assay type: cell-based

T1 sequence (Q9Y2T6 whole entry): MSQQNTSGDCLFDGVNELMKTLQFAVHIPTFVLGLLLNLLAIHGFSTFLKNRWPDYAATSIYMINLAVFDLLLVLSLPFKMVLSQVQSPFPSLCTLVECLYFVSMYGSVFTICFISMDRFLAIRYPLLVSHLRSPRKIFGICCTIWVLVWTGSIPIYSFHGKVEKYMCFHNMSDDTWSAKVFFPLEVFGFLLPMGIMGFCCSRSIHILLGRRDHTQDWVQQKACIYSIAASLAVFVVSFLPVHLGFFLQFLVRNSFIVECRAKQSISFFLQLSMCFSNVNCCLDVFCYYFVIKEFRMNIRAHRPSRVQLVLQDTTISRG

Row | SMILES | % reduction in T1117 incorporation (GPR55 [1]) | IC50 (GPR55 [2]) [nM]
1 | COc1ccc(C[C@@H](C)NC[C@H](O)c2cc(O)cc(O)c2)c2ccccc12 [(R,R′)-MNF] | ~ 70 % reduction in T1117 incorporation | –
2 | COc1ccc(C[C@H](C)NC[C@H](O)c2cc(O)cc(O)c2)c2ccccc12 [(R,S′)-MNF, (R,S′)-4′-methoxy-1-naphthylfenoterol] | – | 1300

Reference: article PMC8901637, “Deprogramming metabolism in pancreatic cancer with a bi-functional GPR55 inhibitor and biased β2 adrenergic agonist” (Scientific Reports, 2022)
